Experimental data: patent US20120010075A1 (priority 2009, published 2012)
Read-outs that look alike come from different tables or passages of the source.

How the values were obtained:
[1] = system: Leptosphaeria nodorum (LEPTNO); assay: In vitro fungitoxicity of hydrazones with and without copper towards Leptosphaeria nodorum (Example 26); assay type: cell-based; conditions: 72 h at 25° C.
Phytophthora infestans = assay type: in vivo, Phytophthora infestans on tomato; conditions: applied 24 h before inoculation, assessed 7 days after inoculation
Phytophthora capsici = assay: In vitro fungitoxicity of hydrazones with and without copper towards Phytophthora capsici (Example 28, Table 3); assay type: cell-based; conditions: 0.039 μg/mL, 48 h; for % Inhn Plus copper Observed: copper-plus AS medium (CuCl2, 50 μM); for inhibition of growth at 0.039 µg/mL: Phytophthora capsici, copper-minus AS medium, read-out: % Inhn Minus copper Observed
[2] = Parastagonospora nodorum, 72 h, compound 0.05 μg/mL, copper-minus medium, read-out: LEPTNO % Inhn. Minus Copper Observed
[3] = compound 0.05 μg/mL, copper-plus medium (CuCl2.2H2O)
[4] = hydrazone 50 ppm + 50 μM CuCl2.2H2O, tomato
[5] = Parastagonospora nodorum, 72 h, copper-minus medium, test compound Concn. 0.05 μg/mL, read-out: LEPTNO % Inhn. Minus Copper Observed
[6] = copper-plus medium (CuCl2 10 μM), test compound Concn. 0.05 μg/mL
[7] = hydrazone 50 ppm with 50 μM CuCl2.2H2O, tomato late blight

COc1ccc(O)c(/C=N/NC(=O)c2ccc(Cl)cc2)c1 [Example 207]
inhibition of growth at 0.05 µg/mL [1, 2]: 0%
LEPTNO % Inhn. Plus Copper Observed [1, 3]: 95.3%
TLB % Control (Phytophthora infestans; [4]): 52.7%
% Inhn Plus copper Observed (Phytophthora capsici): 88.9%
inhibition of growth at 0.039 µg/mL (Phytophthora capsici): 0%

Oc1c(Cl)cc(Cl)cc1/C=N/NC(=S)c1ccccc1 [Example 52]
inhibition of growth at 0.2 µg/mL ([1]; Parastagonospora nodorum, 72 h, compound 0.2 μg/mL, copper-minus medium, read-out: LEPTNO % Inhn. Minus Copper Observed): 12.3%
LEPTNO % Inhn. Plus Copper Observed ([1]; compound 0.2 μg/mL, copper-plus medium (CuCl2.2H2O)): 96.4%
% Inhn Plus copper Observed (Phytophthora capsici): 91.2%
inhibition of growth at 0.039 µg/mL (Phytophthora capsici): 40.6%

O=C(N/N=C/c1ccccc1O)c1cccc(Br)c1 [Example 182]
inhibition of growth at 0.05 µg/mL [1, 2]: 0%
LEPTNO % Inhn. Plus Copper Observed [1, 3]: 97.6%
TLB % Control (Phytophthora infestans; [4]): 74.6%
% Inhn Plus copper Observed (Phytophthora capsici): 90.9%
inhibition of growth at 0.039 µg/mL (Phytophthora capsici): 25.9%

O=C(N/N=C/c1cc(Br)cc(Br)c1O)c1cccc(F)c1 [Example 119]
inhibition of growth at 0.05 µg/mL [1, 2]: 2.2%
LEPTNO % Inhn. Plus Copper Observed [1, 3]: 95.7%
TLB % Control (Phytophthora infestans; [4]): 91.9%
% Inhn Plus copper Observed (Phytophthora capsici): 95.1%
inhibition of growth at 0.039 µg/mL (Phytophthora capsici): 37.9%

O=C(Cc1ccccc1)N/N=C/c1cc(Cl)cc(Cl)c1O [Example 125]
inhibition of growth at 0.05 µg/mL [1, 2]: 2.4%
LEPTNO % Inhn. Plus Copper Observed [1, 3]: 94.4%
TLB % Control (Phytophthora infestans; [4]): 87.0%
% Inhn Plus copper Observed (Phytophthora capsici): 89.4%
inhibition of growth at 0.039 µg/mL (Phytophthora capsici): 66.6%

Cc1ccc(C(=O)N/N=C/c2cc(Br)cc(Br)c2O)c(C)c1 [Example 28]
LEPTNO % Inhn. Minus Copper Observed ([1]; compound 0.05 μg/mL, copper-minus medium): 7.0%
LEPTNO % Inhn. Plus Copper Observed [1, 3]: 96.8%
TLB % Control (Phytophthora infestans; [4]): 62.7%
% Inhn Plus copper Observed (Phytophthora capsici): 93.8%
inhibition of growth at 0.039 µg/mL (Phytophthora capsici): 11.4%

O=C(N/N=C/c1cc(I)cc(I)c1O)c1ccccc1 [Example 146]
inhibition of growth at 0.05 µg/mL [1, 2]: 0%
LEPTNO % Inhn. Plus Copper Observed [1, 3]: 96.2%
TLB % Control (Phytophthora infestans; [4]): 71.2%
% Inhn Plus copper Observed (Phytophthora capsici): 91.4%
inhibition of growth at 0.039 µg/mL (Phytophthora capsici): 11.8%

COc1cc(O)c(/C(C)=N/NC(=O)c2ccc(Cl)cc2)c(OC)c1 [Example 568]
inhibition of growth at 0.05 µg/mL [1, 5]: 8%
LEPTNO % Inhn. Plus Copper Observed [1, 6]: 94.3%
TLB % Control (Phytophthora infestans; [7]): 61.0%
melting point: 136 to 140 °C

C/C(=N\NC(=O)c1cccc(Cl)c1)c1ccc(Cl)cc1O [Example 256]
inhibition of growth at 0.05 µg/mL [1, 2]: 3%
LEPTNO % Inhn. Plus Copper Observed [1, 3]: 98.7%
TLB % Control (Phytophthora infestans; [4]): 18.0%
melting point: 222 to 223 °C

C/C(=N\NC(=O)c1cccc(C)c1)c1cc(F)cc(F)c1O [Example 574]
inhibition of growth at 0.05 µg/mL [1, 5]: 2.8%
LEPTNO % Inhn. Plus Copper Observed [1, 6]: 98.3%
TLB % Control (Phytophthora infestans; [7]): 93.0%
melting point: 215 to 216 °C

Cc1ccc(C(=O)N/N=C/c2c(O)cccc2Cl)cc1 [Example 399]
inhibition of growth at 0.05 µg/mL [1, 5]: 5.8%
LEPTNO % Inhn. Plus Copper Observed [1, 6]: 97.1%
TLB % Control (Phytophthora infestans; [7]): 88.0%
melting point: 250 to 252 °C

CC/C(=N\NC(=O)c1cccc(Oc2ccccc2)c1)c1ccccc1O [Example 44]
inhibition of growth at 0.05 µg/mL [1, 2]: 0.3%
LEPTNO % Inhn. Plus Copper Observed [1, 3]: 93.0%
TLB % Control (Phytophthora infestans; [4]): 0.7%
melting point: 148 to 163 °C

O=C(N/N=C/c1c(Cl)ccc(Cl)c1O)c1cccc([N+](=O)[O-])c1 [Example 371]
inhibition of growth at 0.05 µg/mL [1, 5]: 12.6%
LEPTNO % Inhn. Plus Copper Observed [1, 6]: 96.1%
TLB % Control (Phytophthora infestans; [7]): 98.0%
melting point: 273 to 277 °C

C/C(=N\NC(=O)c1ccccc1O)c1cc(Cl)ccc1O [Example 515]
inhibition of growth at 0.05 µg/mL [1, 5]: 0%
LEPTNO % Inhn. Plus Copper Observed [1, 6]: 97.6%
TLB % Control (Phytophthora infestans; [7]): 47.0%
melting point: 298 to 318 °C

O=C(N/N=C/c1c(Cl)ccc(Cl)c1O)c1cccc(F)c1 [Example 367]
inhibition of growth at 0.05 µg/mL [1, 5]: 13.1%
LEPTNO % Inhn. Plus Copper Observed [1, 6]: 97.9%
TLB % Control (Phytophthora infestans; [7]): 95.0%
melting point: 203 to 209 °C
